Reference: the supplement of paper PMC10307832

Experiments:
Experiment in all cases: relative viability (nuclei count vs DMSO), 5 days (fraction); higher = more cells survive
Midostaurin + Pictilisib = compound: CO[C@@H]1[C@H](N(C)C(=O)c2ccccc2)C[C@H]2O[C@]1(C)n1c3ccccc3c3c4c(c5c6ccccc6n2c5c31)C(=O)NC4 [Midostaurin] + CS(=O)(=O)N1CCN(Cc2cc3nc(-c4cccc5[nH]ncc45)nc(N4CCOCC4)c3s2)CC1 [Pictilisib] (partner 1 µM)
In short: (§1)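 Medians of duplicate plates are given as relative viability. That measure is the nuclei count in treated wells divided by the count in vehicle wells. Counts were taken on 4× images of lung cancer cell lines in 1536-well plates, 5 days after pin-tool dosing the day after seeding with one drug alone or a fixed anchor-drug dose plus five library-drug doses (not always all listed) in √10 steps.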

Midostaurin + AZD7762 = compound: CO[C@@H]1[C@H](N(C)C(=O)c2ccccc2)C[C@H]2O[C@]1(C)n1c3ccccc3c3c4c(c5c6ccccc6n2c5c31)C(=O)NC4 [Midostaurin] + NC(=O)Nc1cc(-c2cccc(F)c2)sc1C(=O)N[C@H]1CCCNC1 [AZD7762] (partner 0.2 µM)
In short: as §1

Midostaurin + Lapatinib = compound: CO[C@@H]1[C@H](N(C)C(=O)c2ccccc2)C[C@H]2O[C@]1(C)n1c3ccccc3c3c4c(c5c6ccccc6n2c5c31)C(=O)NC4 [Midostaurin] + CS(=O)(=O)CCNCc1ccc(-c2ccc3ncnc(Nc4ccc(OCc5cccc(F)c5)c(Cl)c4)c3c2)o1 [Lapatinib] (partner 2 µM)
In short: as §1

[1] = compound: COc1cc(-c2nn([C@H]3CC[C@H](N4CCN(C(C)=O)CC4)CC3)c3ncnc(N)c23)ccc1NC(=O)c1cc2ccccc2n1C + N=C(N)NC(=N)NCCc1ccccc1 [Phenformin] (partner 250 µM)
In short: as §1

Midostaurin + Trametinib = compound: CO[C@@H]1[C@H](N(C)C(=O)c2ccccc2)C[C@H]2O[C@]1(C)n1c3ccccc3c3c4c(c5c6ccccc6n2c5c31)C(=O)NC4 [Midostaurin] + CC(=O)Nc1cccc(-n2c(=O)n(C3CC3)c(=O)c3c(Nc4ccc(I)cc4F)n(C)c(=O)c(C)c32)c1 [Trametinib] (partner 0.02 µM)
In short: as §1

Cell Line: NCI-H322M
- relative viability (Midostaurin + Pictilisib; first compound 0.01 µM): 0.52
- relative viability (Midostaurin + Pictilisib; first compound 0.03162 µM): 0.493
- relative viability (Midostaurin + Pictilisib; first compound 0.1 µM): 0.5
- relative viability (Midostaurin + Pictilisib; first compound 0.3162 µM): 0.594
- relative viability (Midostaurin + AZD7762; first compound 0.01 µM): 0.504
- relative viability (Midostaurin + AZD7762; first compound 0.03162 µM): 0.703
- relative viability (Midostaurin + AZD7762; first compound 0.1 µM): 0.533
- relative viability (Midostaurin + AZD7762; first compound 0.3162 µM): 0.582
- relative viability (Midostaurin + Lapatinib; first compound 0.01 µM): 0.621
- relative viability (Midostaurin + Lapatinib; first compound 0.03162 µM): 0.465
- relative viability (Midostaurin + Lapatinib; first compound 0.1 µM): 0.627
- relative viability (Midostaurin + Lapatinib; first compound 0.3162 µM): 0.695
- relative viability ([1]; first compound 0.0128 µM): 0.815
- relative viability ([1]; first compound 0.04048 µM): 0.816
- relative viability ([1]; first compound 0.128 µM): 0.743
- relative viability ([1]; first compound 1.28 µM): 0.553
- relative viability (Midostaurin + Trametinib; first compound 0.01 µM): 0.483
- relative viability (Midostaurin + Trametinib; first compound 0.03162 µM): 0.567
- relative viability (Midostaurin + Trametinib; first compound 0.1 µM): 0.536
- relative viability (Midostaurin + Trametinib; first compound 0.3162 µM): 0.568

Cell Line: NCI-H3122
- relative viability (Midostaurin + Pictilisib; first compound 0.01 µM): 0.681
- relative viability (Midostaurin + Pictilisib; first compound 0.03162 µM): 0.583
- relative viability (Midostaurin + Pictilisib; first compound 0.1 µM): 0.64
- relative viability (Midostaurin + Pictilisib; first compound 0.3162 µM): 0.734
- relative viability (Midostaurin + AZD7762; first compound 0.01 µM): 0.981
- relative viability (Midostaurin + AZD7762; first compound 0.03162 µM): 0.908
- relative viability (Midostaurin + AZD7762; first compound 0.1 µM): 0.962
- relative viability (Midostaurin + AZD7762; first compound 0.3162 µM): 1.06
- relative viability (Midostaurin + Lapatinib; first compound 0.01 µM): 0.981
- relative viability (Midostaurin + Lapatinib; first compound 0.03162 µM): 1.02
- relative viability (Midostaurin + Lapatinib; first compound 0.1 µM): 0.957
- relative viability (Midostaurin + Lapatinib; first compound 0.3162 µM): 1.02
- relative viability ([1]; first compound 0.0128 µM): 0.397
- relative viability ([1]; first compound 0.04048 µM): 0.35
- relative viability ([1]; first compound 0.128 µM): 0.359
- relative viability ([1]; first compound 1.28 µM): 0.27
- relative viability (Midostaurin + Trametinib; first compound 0.01 µM): 0.244
- relative viability (Midostaurin + Trametinib; first compound 0.03162 µM): 0.191
- relative viability (Midostaurin + Trametinib; first compound 0.1 µM): 0.214
- relative viability (Midostaurin + Trametinib; first compound 0.3162 µM): 0.264

Cell Line: NCI-H2087
- relative viability (Midostaurin + Pictilisib; first compound 0.01 µM): 0.851
- relative viability (Midostaurin + Pictilisib; first compound 0.03162 µM): 0.769
- relative viability (Midostaurin + Pictilisib; first compound 0.1 µM): 0.979
- relative viability (Midostaurin + Pictilisib; first compound 0.3162 µM): 1.18
- relative viability (Midostaurin + AZD7762; first compound 0.01 µM): 1.39
- relative viability (Midostaurin + AZD7762; first compound 0.03162 µM): 1.16
- relative viability (Midostaurin + AZD7762; first compound 0.1 µM): 1.36
- relative viability (Midostaurin + AZD7762; first compound 0.3162 µM): 1.03
- relative viability (Midostaurin + Lapatinib; first compound 0.01 µM): 1.09
- relative viability (Midostaurin + Lapatinib; first compound 0.03162 µM): 0.889
- relative viability (Midostaurin + Lapatinib; first compound 0.1 µM): 1.02
- relative viability (Midostaurin + Lapatinib; first compound 0.3162 µM): 1.4
- relative viability ([1]; first compound 0.0128 µM): 0.505
- relative viability ([1]; first compound 0.128 µM): 0.529
- relative viability ([1]; first compound 1.28 µM): 0.462
- relative viability (Midostaurin + Trametinib; first compound 0.01 µM): 0.178
- relative viability (Midostaurin + Trametinib; first compound 0.03162 µM): 0.221
- relative viability (Midostaurin + Trametinib; first compound 0.1 µM): 0.187
- relative viability (Midostaurin + Trametinib; first compound 0.3162 µM): 0.273

Cell Line: LC-2-ad
- relative viability (Midostaurin + Pictilisib; first compound 0.01 µM): 0.432
- relative viability (Midostaurin + Pictilisib; first compound 0.03162 µM): 0.416
- relative viability (Midostaurin + Pictilisib; first compound 0.1 µM): 0.497
- relative viability (Midostaurin + Pictilisib; first compound 0.3162 µM): 0.24
- relative viability (Midostaurin + AZD7762; first compound 0.01 µM): 0.873
- relative viability (Midostaurin + AZD7762; first compound 0.03162 µM): 0.878
- relative viability (Midostaurin + AZD7762; first compound 0.1 µM): 0.843
- relative viability (Midostaurin + AZD7762; first compound 0.3162 µM): 0.724
- relative viability (Midostaurin + Lapatinib; first compound 0.01 µM): 0.989
- relative viability (Midostaurin + Lapatinib; first compound 0.03162 µM): 0.956
- relative viability (Midostaurin + Lapatinib; first compound 0.1 µM): 0.982
- relative viability (Midostaurin + Lapatinib; first compound 0.3162 µM): 0.855
- relative viability ([1]; first compound 0.0128 µM): 0.642
- relative viability ([1]; first compound 0.04048 µM): 0.552
- relative viability ([1]; first compound 0.128 µM): 0.593
- relative viability ([1]; first compound 1.28 µM): 0.503
- relative viability (Midostaurin + Trametinib; first compound 0.01 µM): 0.906
- relative viability (Midostaurin + Trametinib; first compound 0.03162 µM): 0.918
- relative viability (Midostaurin + Trametinib; first compound 0.1 µM): 0.749
- relative viability (Midostaurin + Trametinib; first compound 0.3162 µM): 0.9
